Reference: US20190350964A1, “ANTI-CANCER COMPOUNDS AND USES THEREOF” (NATIONAL UNIVERSITY OF SINGAPORE, priority 2016, published 2019)
One block for each compound: values may come before it.

Tests used:
[1] = biological target: T1, PI5P4Kα (Homo sapiens, UniProt P48426); assay: Cell-free PI5P4Kα activity assay (ADP-Glo); assay type: biochemical; conditions: 1 h pre-incubation; PI(5)P 20 μM, ATP 10 μM; read-out: IC50, kinase activity of purified PI5P4Kα in vitro
T1 construct: gift from Daiichi Sankyo Co., Ltd. and Daiichi Sankyo RD Novare Co., Ltd
T1 sequence (P48426 whole entry): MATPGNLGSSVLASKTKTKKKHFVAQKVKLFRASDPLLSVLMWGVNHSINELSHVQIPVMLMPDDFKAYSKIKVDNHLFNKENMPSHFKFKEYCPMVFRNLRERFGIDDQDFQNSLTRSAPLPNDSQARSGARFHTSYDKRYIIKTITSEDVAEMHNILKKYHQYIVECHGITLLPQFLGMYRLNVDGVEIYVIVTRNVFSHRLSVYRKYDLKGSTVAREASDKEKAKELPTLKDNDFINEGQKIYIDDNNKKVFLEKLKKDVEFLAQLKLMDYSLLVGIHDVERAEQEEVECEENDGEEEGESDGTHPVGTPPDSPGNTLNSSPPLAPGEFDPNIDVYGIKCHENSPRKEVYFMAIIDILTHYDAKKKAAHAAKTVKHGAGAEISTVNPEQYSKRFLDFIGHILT
Protocol: For cell-free PI5P4Kα activity assays, serial dilutions of compounds were pre-incubated with 1 ng of PI5P4Kα (kind gift from Daiichi Sankyo Co., Ltd. and Daiichi Sankyo RD Novare Co., Ltd.) in reaction buffer [50 mM HEPES (pH 7.0), 13 mM MgCl2, 0.005% CHAPS, 0.01% BSA, 2.5 mM DTT] for 1 h at 25° C. DOPS (80 μM, Avanti polar lipids), PI(5)P (20 μM, Echelon) and ATP (10 μM, Sigma-Aldrich) were added and further incubated for 90 min at room temperature. PI5P4Kα activity was measured by recording luminescent signals (Tecan) using an ADP-Glo Kinase Assay (Promega) according to the manufacturer's protocol.

[2] = tested on: PIK3IP1; assay: qRT-PCR of PIK3IP1 mRNA in Ras- or Raf-mutant cancer cell lines; assay type: cell-based, human; conditions: U0126 and/or SCH772984, 24 h
Protocol: […] human […] ID NO: 11, [NT] ID NO: 12), human […] ID NO: 13, [NT] ID NO: 14), human […] ID NO: 15, [NT] ID NO: 16) and human PIK3IP1 ([NT] ID NO: 17, [NT] ID NO: 18). The TATA-binding protein (TBP) gene was used for normalization. All PCR reactions were performed in triplicate.

[3] = tested on: normal and transformed BJ cells; assay: Chemoprotection: a166 pre-treatment followed by a159, paclitaxel or etoposide; assay type: cell-based, human; conditions: without a166 pre-treatment
Protocol: (§1) Cell death was assessed via Annexin V and/or PI (propidium iodide) staining according to the manufacturer's instructions (eBioscience). Cell growth arrest was assessed by direct measurement of DNA synthesis through incorporation of the nucleoside analog bromodeoxyuridine (BrdU). Briefly, BrdU (30 μM, Sigma-Aldrich) was added for 2 h before harvesting cells. Cells were subsequently stained with Pacific Blue-conjugated BrdU antibody (Invitrogen) for 1 h followed by PI staining. Stained cells were analyzed by MACSQuant (MACS). Three independent experiments were performed in triplicate. The percentage of Annexin V/PI- or BrdU-positive cells was quantified using Flow Jo software (Becton Dickinson). Where indicated, the combined activity of caspase-3/7 was determined using the caspase-Glo 3/7 Assay Kit (Promega) and normalized to the number of viable cells as determined by MTT assay.

[4] = tested on: normal and transformed BJ cells; assay: Crystal violet / MTT viability of isogenic normal and transformed BJ cells; conditions: 72 h; crystal violet and MTT (0.1-40 μM)
[5] = tested on: HCT-15 human colon adenocarcinoma cells; assay: HCT-15 tumor xenograft in nude mice; assay type: in vivo, mouse; conditions: for antitumor activity (tumor volume): a131 20 mg/kg, b5 40-80 mg/kg, 12 days, paclitaxel IV
Source text: BALB/c athymic female nude mice (nu/nu, 5-7 weeks) (InVivos) were kept under specific pathogen-free (SPF) conditions. The care and use of mice was approved by the Duke-NUS IACUC in accordance with protocol 2015/SHS/1030. HCT15 human colon cancer cells (5×10^6) or MDA-MB-231 human breast cancer cells (4×10^6 with Matrigel) were subcutaneously injected into the flanks of mice. When the mean tumor volume reached 100-300 mm^3 (Day 1), the mice were randomly divided into experimental groups of 6 mice by an algorithm that moves animals around to achieve the best case distribution to assure that each treatment group has similar mean tumor burden and standard deviation. No statistical method was used to predetermine sample size. […] Paclitaxel (Cayman Chemical) was dissolved in ethanol:Tween 80=1:3 (v/v) solution followed by the addition of a 5% glucose solution (final ratio, ethanol:Tween 80:5% glucose=5:15:80) and injected via the tail vain (IV). Tumor dimensions were measured using calipers, and tumor volume (mm^3) was calculated using the formula width^2×length/2 in a blinded fashion. On Day 12 (HCT15) or Day 16 (MDA-MB-231), mice were sacrificed. Tumors were collected, fixed overnight in 4% paraformaldehyde (PFA) and stored in 70% ethanol. For immunostaining, antigens were retrieved from formaldehyde-fixed, paraffin-embedded tumor tissue sections for 30 min by boiling in sodium citrate buffer (pH 6.0) using a microwave histoprocessor (Milestone). Endogenous peroxidase activity in tissue sections was depleted by treatment with 3% hydrogen peroxide (H2O2 in 1×TBS) for 20 min at room temperature. Tumor tissue sections were incubated overnight with anti-β-tubulin (Abcam; 1:100 in 3% BSA/TBS-Tween 20) at 4° C. followed by incubation with goat anti-rabbit FITC-conjugated secondary antibody (Invitrogen; 1:200 in 3% BSA/TBS) for 1 h at 25° C. After dehydration treatment, coverslips were mounted using DAPI mounting medium (Vector). Images were acquired in 3D-SIM mode using a super resolution microscope (Nikon), and the number of cells with either 2 or mitotic-spindles was quantified (n>50 cells per section, 6-7 sections per treatment). For detection of apoptosis using the TUNEL method, the ApopTag Plus Peroxidase In Situ Apoptosis Detection Kit (Millipore) was used for formaldehyde-fixed, paraffin-embedded tumor tissue sections treated with b5 (80 mg/kg, IP) or control vehicle for 12 days. Slide scans were acquired using a MetaSystems Metafer built on a Zeiss Axiolmager Z.2 upright microscope. The system is equipped with a CoolCubel camera and a Zeiss Plan-Neofluar 20×/0.5 Ph2 objective lens. Image acquisition was controlled with Metafer4 software, and stitching was performed with the VSlide software and further processed using the open source software FIJI. A custom macro was used to batch process the images in the following sequence: Gaussian filter, color deconvolution of hematoxylin and DAB, thresholding the hematoxylin image, watershed to separate touching nuclei, and then count the number of hematoxylin-stained nuclei. For the DAB image, a fixed threshold was used, watershed applied and the number of DAB stained nuclei counted. In all cases, no data or animals were excluded and results are expressed as mean and standard deviation of the mean.

[6] = tested on: normal and transformed BJ cells; assay: a131 SAR analysis: pH3(Ser10) immunoblot, BrdU incorporation, subG1 FACS; assay type: cell-based, human; design: key: Group 1: possess the dual-inhibitory properties of both causing the arrest of normal BJ cells at the G1/S phase and also causing mitotic arrest/catastrophe in transformed BJ cells; Group 2: only cause the arrest of normal BJ cells at the G1/S phase; Group 3: cause mitotic arrest/catastrophe in transformed BJ cells, but do not arrest normal BJ cells at the G1/S phase; Group 4: are inactive or weakly active; conditions: 5 μM, 48 h
Protocol: as §1
Total cell lysates were prepared with 1% triton lysis buffer [25 mM Tris HCl (pH 8.0), 150 mM NaCl, 1% triton-X100, 1 mM dithiothreitol (DTT), protease inhibitor mix (Complete Mini, Roche) and phosphatase inhibitor (PhosphoStop, Roche)] and subjected to SDS-PAGE. The following antibodies were used for immunoblotting: anti-β-actin (Sigma-Aldrich), anti-cleaved PARP (Abcam, #ab32064), anti-PI5P4Kα (#5527), anti-PI5P4Kβ (#9694), anti-cleaved caspase-3 (#9664), anti-pHistone H3(Ser10) (#3377), anti-pAkt(S473) (#9271), anti-pAkt(T308) (#13038), anti-total Akt (#9272), anti-p70S6K(T389) (#9234), anti-total p70S6K (#9202), anti-pErk (#4370), anti-γ-Histone H2AX (#9718) (Cell signaling) and anti-PIK3IP1 (Proteintech, #16826-1-AP). The secondary antibodies used were sheep anti-mouse IgG HRP and donkey anti-rabbit IgG HRP (Amersham; 1:2000 dilution). Immunoreactive proteins were visualized using ECL reagent (Amersham). Where indicated, intensities of protein bands were quantified by densitometry (Odyssey V3.0), normalized to their loading controls and then calculated as fold expression change relative to DMSO control.

[7] = tested on: MDA-MB-231 human breast tumor cells; assay: MDA-MB-231 tumor xenograft in nude mice; assay type: in vivo, mouse; conditions: a131 20 mg/kg, b5 40-80 mg/kg, PO or IP twice daily, 15 days
Source text: BALB/c athymic female nude mice (nu/nu, 5-7 weeks) (InVivos) were kept under specific pathogen-free (SPF) conditions. The care and use of mice was approved by the Duke-NUS IACUC in accordance with protocol 2015/SHS/1030. HCT15 human colon cancer cells (5×10^6) or MDA-MB-231 human breast cancer cells (4×10^6 with Matrigel) were subcutaneously injected into the flanks of mice. When the mean tumor volume reached 100-300 mm^3 (Day 1), the mice were randomly divided into experimental groups of 6 mice by an algorithm that moves animals around to achieve the best case distribution to assure that each treatment group has similar mean tumor burden and standard deviation. No statistical method was used to predetermine sample size. […] Tumor dimensions were measured using calipers, and tumor volume (mm^3) was calculated using the formula width^2×length/2 in a blinded fashion. […] Images were acquired in 3D-SIM mode using a super resolution microscope (Nikon), and the number of cells with either 2 or mitotic-spindles was quantified (n>50 cells per section, 6-7 sections per treatment). […] For the DAB image, a fixed threshold was used, watershed applied and the number of DAB stained nuclei counted. In all cases, no data or animals were excluded and results are expressed as mean and standard deviation of the mean.

IC50 [1]: 2100 nM
Compound: COc1cc(/C=C(\C#N)C(=O)c2ccc(O)c(O)c2)cc(I)c1O [I-OMe-AG-538]

Compound: N#CC(=C(/N)Sc1ccccc1N)/C(C#N)=C(\N)Sc1ccccc1N [U0126]
PIK3IP1 mRNA expression after MEK/ERK inhibition [2]: attenuates Ras- and Raf-mediated suppression of PIK3IP1

Compound: O=C(Nc1ccc2[nH]nc(-c3ccncc3)c2c1)[C@@H]1CCN(CC(=O)N2CCN(c3ccc(-c4ncccn4)cc3)CC2)C1 [SCH772984]
PIK3IP1 mRNA expression after MEK/ERK inhibition [2]: attenuates Ras- and Raf-mediated suppression of PIK3IP1

Compound: CC(=O)O[C@H]1C(=O)[C@@]2(C)[C@H]([C@H](OC(=O)c3ccccc3)[C@]3(O)C[C@H](OC(=O)[C@H](O)[C@@H](NC(=O)c4ccccc4)c4ccccc4)C(C)=C1C3(C)C)[C@]1(OC(C)=O)CO[C@@H]1C[C@@H]2O [paclitaxel]
selectivity against transformed BJ cells, treatment alone [3]: showed minimal selectivity against transformed BJ cells
selective killing of transformed versus normal BJ cells (cell viability) [4]: showed minimal selectivity
antitumor activity (tumor volume) ([5]; PO or IP twice daily): did not show significant antitumor activity

Compound: N#C/C(=C\c1cccc2cnccc12)c1c[nH]c2ccc(OCCCN3CCCC3)cc12 [b12]
Group (a131 SAR analysis) [6]: Group 2

Compound: CN1CCN(C(=O)Cn2cc(/C(C#N)=C/c3cccc4cnccc34)c3ccccc32)CC1 [b94]
Group (a131 SAR analysis) [6]: Group 2

Compound: N#C/C(=C\c1cncc2ccccc12)c1c[nH]c2ccccc12 [a132]
Group (a131 SAR analysis) [6]: Group 4

Compound: N#C/C(=C\c1cccc2cccnc12)c1c[nH]c2ccccc12 [a158]
Group (a131 SAR analysis) [6]: Group 2

Compound: COC(=O)Nc1nc2ccc(C(=O)c3cccs3)cc2[nH]1 [nocodazole]
selective killing of transformed versus normal BJ cells (cell viability) [4]: showed minimal selectivity

Compound: N#C/C(=C\c1cccc2cnccc12)c1nc2ccccc2[nH]1 [a169]
Group (a131 SAR analysis) [6]: Group 4

Compound: COCCOc1ccc2[nH]cc(/C(C#N)=C/c3cccc4cnccc34)c2c1 [b16]
Group (a131 SAR analysis) [6]: Group 2

Compound: CN1CCN(CC(=O)n2cc(/C(C#N)=C/c3cccc4cnccc34)c3ccccc32)CC1 [b5, (Z)-3-(isoquinolin-5-yl)-2-(1-(2-(4-methylpiperazin-1-yl)acetyl)-1H-indol-3-yl)acrylonitrile]
antitumor activity (tumor volume) [7]: marked antitumor efficacies
cancer cell death in tumor sections (TUNEL staining) ([5]; HCT-15 tumor sections, Day 12, b5 80 mg/kg IP): cancer cell death as determined by TUNEL staining
antitumor activity (tumor volume) ([5]; PO or IP twice daily): marked antitumor efficacies
body weight loss ([5]; xenograft-bearing mice, PO or IP twice daily): without any body weight loss
Group (a131 SAR analysis) [6]: Group 1

Compound: N#C/C(=C\c1cccc2cnccc12)c1c[nH]c2ncccc12 [a167]
Group (a131 SAR analysis) [6]: Group 4

Compound: CC(=O)NCCC(=O)n1cc(/C(C#N)=C/c2cccc3cnccc23)c2ccccc21 [b9]
Group (a131 SAR analysis) [6]: Group 1

Compound: N#C/C(=C\c1cccc2ncccc12)c1c[nH]c2ccccc12 [a159]
Group (a131 SAR analysis) [6]: Group 3
